Source: patent US20230266302A1, “SYNTHESIS AND USE OF N-BENZYL SULFONAMIDES” (THE UNIVERSITY OF TULSA, priority 2020, published 2023)

Assays:
Test in all cases: ATP level assay (CellTiter-Glo), percent of control
Type in all cases: cell-based
[1] = tested on: BxPC3 (pancreatic cancer); details: two hour incubation; for activity at 100 µM: Homo sapiens, BXPC-3, 2 h, compound alone, control DMSO, read-out: POC (percent of control) BxPC3
H293 (kidney cancer) = details: two hour incubation; for activity at 100 µM: 2 h, compound alone, control DMSO, read-out: POC (percent of control) H293
HDF (normal cells) = details: two hour incubation; for activity at 100 µM: 2 h, compound alone, control DMSO, read-out: POC (percent of control) HDF
HeLa (cervical cancer) = details: two hour incubation; for activity at 100 µM: Homo sapiens, HeLa, 2 h, compound alone, control DMSO, read-out: POC (percent of control) HeLa
[2] = tested on: MCF10A (non-cancerous breast); details: two hour incubation; for activity at 100 µM: Homo sapiens, MCF-10A, 2 h, compound alone, control DMSO, read-out: POC (percent of control) MCF10A
MCF7 (breast cancer) = details: two hour incubation; for activity at 100 µM: Homo sapiens, MCF7, 2 h, compound alone, control DMSO, read-out: POC (percent of control) MCF7
MDA-MB (breast cancer) = details: two hour incubation; for activity at 100 µM: 2 h, compound alone, control DMSO, read-out: POC (percent of control) MDA-MB
NCI-H196 (lung cancer) = details: two hour incubation; for activity at 100 µM: NCI-H196, 2 h, compound alone, control DMSO, read-out: POC (percent of control) NCI-H196
PC3 (prostate cancer) = details: two hour incubation; for activity at 100 µM: 2 h, compound alone, control DMSO, read-out: POC (percent of control) PC3
SkBr3 (breast cancer) = details: two hour incubation; for activity at 100 µM: Homo sapiens, SK-BR-3, 2 h, compound alone, control DMSO, read-out: POC (percent of control) SkBr3
T47D (breast cancer) = details: two hour incubation; for activity at 100 µM: Homo sapiens, T47D, 2 h, compound alone, control DMSO, read-out: POC (percent of control) T47D
[3] = compound 100 uM + 2DG (about 10-20 mM)
[4] = compound 100 uM + rotenone (approximately 1.25 μM)

Row | SMILES | activity at 100 µM [1] | POC (percent of control) BxPC3 [1, 3] | POC (percent of control) BxPC3 [1, 4] | activity at 100 µM (H293 (kidney cancer)) | POC (percent of control) H293 (H293 (kidney cancer); [3]) | POC (percent of control) H293 (H293 (kidney cancer); [4]) | activity at 100 µM (HDF (normal cells)) | POC (percent of control) HDF (HDF (normal cells); [3]) | POC (percent of control) HDF (HDF (normal cells); [4]) | activity at 100 µM (HeLa (cervical cancer)) | POC (percent of control) HeLa (HeLa (cervical cancer); [3]) | POC (percent of control) HeLa (HeLa (cervical cancer); [4]) | activity at 100 µM [2] | POC (percent of control) MCF10A [2, 3] | POC (percent of control) MCF10A [2, 4] | activity at 100 µM (MCF7 (breast cancer)) | POC (percent of control) MCF7 (MCF7 (breast cancer); [3]) | POC (percent of control) MCF7 (MCF7 (breast cancer); [4]) | activity at 100 µM (MDA-MB (breast cancer)) | POC (percent of control) MDA-MB (MDA-MB (breast cancer); [3]) | also measured
1 | COc1ncccc1CNS(=O)(=O)c1ccccc1 [Compound 13, N-[(2-methoxypyridin-3-yl)methyl]benzenesulfonamide] | 91.2% | 74.1% of control | 55.3% of control | 101% | 69.4% of control | 81.1% of control | 96.5% | 104.2% of control | 98.3% of control | 94.6% | 90.7% of control | 94.1% of control | 94.8% | 96.1% of control | 84% of control | 127% | 89.7% of control | 116.5% of control | 101% | 81.9% of control | POC (percent of control) MDA-MB (MDA-MB (breast cancer); [4]): 103.8% of control; activity at 100 µM (NCI-H196 (lung cancer)): 87.6%; POC (percent of control) NCI-H196 (NCI-H196 (lung cancer); [3]): 127.4% of control; POC (percent of control) NCI-H196 (NCI-H196 (lung cancer); [4]): 99.7% of control; activity at 100 µM (PC3 (prostate cancer)): 82.2%; POC (percent of control) PC3 (PC3 (prostate cancer); [3]): 97.3% of control; POC (percent of control) PC3 (PC3 (prostate cancer); [4]): 101.2% of control; activity at 100 µM (SkBr3 (breast cancer)): 101%; POC (percent of control) SkBr3 (SkBr3 (breast cancer); [3]): 87.2% of control; POC (percent of control) SkBr3 (SkBr3 (breast cancer); [4]): 96.5% of control; activity at 100 µM (T47D (breast cancer)): 84.3%; POC (percent of control) T47D (T47D (breast cancer); [3]): 88.8% of control; POC (percent of control) T47D (T47D (breast cancer); [4]): 90% of control
2 | Cc1ccc(S(=O)(=O)NCc2nn(C)c3ccccc23)cc1 [Compound 8, 4-methyl-N-[(1-methyl-1H-indazol-3-yl)methyl]benzenesulfonamide] | 106% | 87.1% of control | 93.5% of control | 112% | 83.5% of control | 87.1% of control | 99% | 91.3% of control | 88.3% of control | 106% | 80.8% of control | 99.1% of control | 94.6% | 77.9% of control | 94.4% of control | 140% | 86.2% of control | 116.7% of control | 93.9% | 91.7% of control | POC (percent of control) MDA-MB (MDA-MB (breast cancer); [4]): 86.2% of control; activity at 100 µM (NCI-H196 (lung cancer)): 91.1%; POC (percent of control) NCI-H196 (NCI-H196 (lung cancer); [3]): 99.2% of control; POC (percent of control) NCI-H196 (NCI-H196 (lung cancer); [4]): 95.1% of control; activity at 100 µM (PC3 (prostate cancer)): 109%; POC (percent of control) PC3 (PC3 (prostate cancer); [3]): 87.9% of control; POC (percent of control) PC3 (PC3 (prostate cancer); [4]): 108.3% of control; activity at 100 µM (SkBr3 (breast cancer)): 88.8%; POC (percent of control) SkBr3 (SkBr3 (breast cancer); [3]): 97.1% of control; POC (percent of control) SkBr3 (SkBr3 (breast cancer); [4]): 103.7% of control; activity at 100 µM (T47D (breast cancer)): 64.1%; POC (percent of control) T47D (T47D (breast cancer); [3]): 94.6% of control; POC (percent of control) T47D (T47D (breast cancer); [4]): 101.2% of control
